Where a name gives a salt, the structure may show the parent alone.
Tested on: RPA194
Test: RPA194 destruction / Pol I inhibition, high-content imaging in A375 cells
Format: cell-based
Conditions: A375 cells treated for 4 hours, anti-RPA194 immunofluorescence; pIC50 >= 5.02 deemed a Pol I inhibitor
Experimental: Cell culture: A375 cells (CRL-1619, ATCC) were grown in DMEM (GJBCO) supplemented with […] (GTBCO) in 5% CO2 at 37° C.
Cell treatment and Imaging: 18 hours post-seeding in cell carrier black 384-well plates (PerkinElmer) at 15 000 cells/well, A375 cells were treated for 4 hours with a positive control or test compounds (9 serial semi-log dilutions, top concentration 10 μM). Upon treatment A375 cells were (i) fixed for 15 min at RT with 4% of paraformaldehyde, (ii) permeabilized for 20 min at RT with 0.1-0.5% of NP-40, (iii) incubated with primary antibodies at 4° C.: anti-RPA194 (1:1000-1:1250 dilution, sc-48385, Santa Cruz Biotechnology) and anti-gH2Ax (1:5000 dilution, 81299, Abcam or 1:4000, JBW302, Millipore) (iv) incubated for 1 h at RT with Hoechst (1:5000 dilution, H3570, ThermoFisher) and secondary antibodies: anti-mouse-AlexaFluor488 (1:2000 dilution, A11001, ThermoFisher) and anti-rabbit-AlexaFluor647 (1:2000 dilution, A21443, ThermoFisher) or goat anti-mouse AlexaFluor-594 (1:1000 dilution). Images were acquired on an Operetta CLS High-Content Analysis System (PerkinElmer) (40× objective; 9 fields/well) and processed using the Columbus Image Analysis System (PerkinElmer) or by using Molecular Devices ImageXpress Micro XLS High Content Imager and MetaXpress high-content acquisition and analysis software.
In the table below, (+) is associated with a pIC50 5.02 to 5.8; (++) with pIC50 5.8 to 6.3; and (+++) with a pIC50 above 6.3.

Structure (SMILES)	Activity Range (pIC50)
CNC(C)CNC(=O)c1cccn2c(=O)c3ccc4ccccc4c3nc12 (single isomer, unassigned) [Example 19, (S or R)-N-(2-(methylamino)propyl)-7-oxo-7H-benzo[h]pyrido[2,1-b]quinazoline-12-carboxamide; hydrochloride]	++ ((++) with pIC50 5.8 to 6.3)
CNC(C)CNC(=O)c1cccn2c(=O)c3ccc4ccccc4c3nc12 (single isomer, unassigned) [Example 20, (R or S)-N-(2-(methylamino)propyl)-7-oxo-7H-benzo[h]pyrido[2,1-b]quinazoline-12-carboxamide; hydrochloride]	++ ((++) with pIC50 5.8 to 6.3)
CN(C)CCNC(=O)c1cccn2c(=O)c3ccc4ccccc4c3nc12 [Example 1, hydrochloride]	+++ ((+++) with a pIC50 above 6.3)
O=C(NCCN1CC[C@H](O)C1)c1cccn2c(=O)c3ccc4ccccc4c3nc12 [Example 2, (S)-N-(2-(3-hydroxypyrrolidin-1-yl)ethyl)-7-oxo-7H-benzo[h]pyrido[2,1-b]quinazoline-12-carboxamide; hydrochloride]	+++ ((+++) with a pIC50 above 6.3)
O=C(NCCN1CC[C@@H](O)C1)c1cccn2c(=O)c3ccc4ccccc4c3nc12 [Example 3, (R)-N-(2-(3-hydroxypyrrolidin-1-yl)ethyl)-7-oxo-7H-benzo[h]pyrido[2,1-b]quinazoline-12-carboxamide; hydrochloride]	+++ ((+++) with a pIC50 above 6.3)
O=C(NCCN1CCCC1)c1cccn2c(=O)c3ccc4ccccc4c3nc12 [Example 4, 7-oxo-N-(2-(pyrrolidin-1-yl)ethyl)-7H-benzo[h]pyrido[2,1-b]quinazoline-12-carboxamide hydrochloride]	+++ ((+++) with a pIC50 above 6.3)
O=C(NCCN1CCC(O)CC1)c1cccn2c(=O)c3ccc4ccccc4c3nc12 [Example 5, N-(2-(4-hydroxypiperidin-1-yl)ethyl)-7-oxo-7H-benzo[h]pyrido[2,1-b]quinazoline-12-carboxamide hydrochloride]	+++ ((+++) with a pIC50 above 6.3)
CN(C)C(C)(C)CNC(=O)c1cccn2c(=O)c3ccc4ccccc4c3nc12 [Example 6, N-(2-(dimethylamino)-2-methylpropyl)-7-oxo-7H-benzo[h]pyrido[2,1-b]quinazoline-12-carboxamide hydrochloride]	++ ((++) with pIC50 5.8 to 6.3)
O=C(NCCN1C[C@@H](O)[C@H](O)C1)c1cccn2c(=O)c3ccc4ccccc4c3nc12 [Example 7, N-(2-((3R,4R)-3,4-dihydroxy-pyrrolidin-1-yl)ethyl)-7-oxo-7H-benzo[h]pyrido[2,1-b]quinazoline-12-carboxamide hydrochloride]	+++ ((+++) with a pIC50 above 6.3)
O=C(NC1CNC1)c1cccn2c(=O)c3ccc4ccccc4c3nc12 [Example 8, N-(azetidin-3-yl)-7-oxo-7H-benzo[h]pyrido[2,1-b]quinazoline-12-carboxamide dihydrochloride]	+ ((+) is associated with a pIC50 5.02 to 5.8)
CN1CC(NC(=O)c2cccn3c(=O)c4ccc5ccccc5c4nc23)C1 [Example 9, N-(1-methylazetidin-3-yl)-7-oxo-7H-benzo[h]pyrido[2,1-b]quinazoline-12-carboxamide hydrochloride]	++ ((++) with pIC50 5.8 to 6.3)
C[C@@H](CNC(=O)c1cccn2c(=O)c3ccc4ccccc4c3nc12)N(C)C [Example 10, (S)-N-(2-(dimethylamino)propyl)-7-oxo-7H-benzo[h]pyrido[2,1-b]quinazoline-12-carboxamide; hydrochloride]	++ ((++) with pIC50 5.8 to 6.3)
C[C@H](CNC(=O)c1cccn2c(=O)c3ccc4ccccc4c3nc12)N(C)C [Example 11, (R)-N-(2-(dimethylamino)propyl)-7-oxo-7H-benzo[h]pyrido[2,1-b]quinazoline-12-carboxamide; hydrochloride]	+++ ((+++) with a pIC50 above 6.3)
